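Exposure lasted 48 hours, with cells grown in 96-well plates and compounds tested at five concentrations. At the GI50, growth is halved. At the TGI there is no net growth.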
Tests used:
Experiment in all cases: NCI-60 cell line screen, 48 h
HS 578T breast = system: HS 578T breast
OVCAR-4 ovarian = system: OVCAR-4 ovarian
UACC-62 melanoma = system: UACC-62 melanoma
HCT-15 colon = system: HCT-15 colon
HT29 colon = system: HT29 colon
SNB-75 CNS = system: SNB-75 CNS
SK-MEL-2 melanoma = system: SK-MEL-2 melanoma
EKVX NSCLC = system: EKVX NSCLC
NCI-H23 lung = system: NCI-H23 lung
SR leukemia = system: SR leukemia
SW-620 colon = system: SW-620 colon
RPMI-8226 leukemia = system: RPMI-8226 leukemia
SK-OV-3 ovarian = system: SK-OV-3 ovarian
OVCAR-5 ovarian = system: OVCAR-5 ovarian
MALME-3M melanoma = system: MALME-3M melanoma
A498 renal = system: A498 renal
NCI/ADR-RES ovarian = system: NCI/ADR-RES ovarian
NCI-H522 lung = system: NCI-H522 lung
SK-MEL-28 melanoma = system: SK-MEL-28 melanoma
U251 CNS = system: U251 CNS
ACHN renal = system: ACHN renal
SK-MEL-5 melanoma = system: SK-MEL-5 melanoma
T-47D breast = system: T-47D breast
HOP-92 NSCLC = system: HOP-92 NSCLC
SF-268 CNS = system: SF-268 CNS
OVCAR-3 ovarian = system: OVCAR-3 ovarian
IGROV1 ovarian = system: IGROV1 ovarian
LOX IMVI melanoma = system: LOX IMVI melanoma
COLO 205 colon = system: COLO 205 colon
MDA-MB-435 = system: MDA-MB-435
BT-549 breast = system: BT-549 breast
OVCAR-8 ovarian = system: OVCAR-8 ovarian
A549 NSCLC = system: A549 NSCLC
HCC-2998 colon = system: HCC-2998 colon
MCF7 breast = system: MCF7 breast
RXF 393 renal = system: RXF 393 renal
HOP-62 NSCLC = system: HOP-62 NSCLC
CAKI-1 renal = system: CAKI-1 renal
UO-31 renal = system: UO-31 renal
MDA-MB-231 breast = system: MDA-MB-231 breast
TK-10 renal = system: TK-10 renal
MOLT-4 leukemia = system: MOLT-4 leukemia
PC-3 prostate = system: PC-3 prostate
SN12C renal = system: SN12C renal
DU-145 prostate = system: DU-145 prostate
SF-539 CNS = system: SF-539 CNS
NCI-H460 lung = system: NCI-H460 lung
HCT-116 colon = system: HCT-116 colon
SF-295 CNS = system: SF-295 CNS
786-0 renal = system: 786-0 renal
UACC-257 melanoma = system: UACC-257 melanoma
KM12 colon = system: KM12 colon

SMILES: COc1ccc(C(=O)OC2C(OC3C(O)COC(O[C@H]4C[C@H]5[C@@H]6CC=C7C[C@@H](O)CC[C@]7(C)[C@H]6CC[C@]5(C)[C@H]4[C@H](C)C(=O)CCC(C)C)C3OC(C)=O)OCC(O)C2O)cc1 (some centres undefined)
- GI50 (HS 578T breast): < 3 nM
- TGI (HS 578T breast): 21.5 nM
- GI50 (OVCAR-4 ovarian): 8.92 nM
- TGI (OVCAR-4 ovarian): 19600 nM
- GI50 (UACC-62 melanoma): < 3 nM
- TGI (UACC-62 melanoma): < 3 nM
- GI50 (HCT-15 colon): 23 nM
- TGI (HCT-15 colon): 628 nM
- GI50 (HT29 colon): < 3 nM
- TGI (HT29 colon): 5910 nM
- GI50 (SNB-75 CNS): < 3 nM
- TGI (SNB-75 CNS): 4360 nM
- GI50 (SK-MEL-2 melanoma): < 3 nM
- TGI (SK-MEL-2 melanoma): 10.1 nM
- GI50 (EKVX NSCLC): < 3 nM
- TGI (EKVX NSCLC): 2400 nM
- GI50 (NCI-H23 lung): 14.4 nM
- TGI (NCI-H23 lung): 3370 nM
- GI50 (SR leukemia): < 3 nM
- TGI (SR leukemia): 682 nM
- GI50 (SW-620 colon): < 3 nM
- TGI (SW-620 colon): 304 nM
- GI50 (RPMI-8226 leukemia): < 3 nM
- TGI (RPMI-8226 leukemia): < 3 nM
- GI50 (SK-OV-3 ovarian): < 3 nM
- TGI (SK-OV-3 ovarian): 191 nM
- GI50 (OVCAR-5 ovarian): 6.01 nM
- TGI (OVCAR-5 ovarian): 1630 nM
- GI50 (MALME-3M melanoma): < 3 nM
- TGI (MALME-3M melanoma): 129 nM
- GI50 (A498 renal): < 3 nM
- TGI (A498 renal): < 3 nM
- GI50 (NCI/ADR-RES ovarian): 7490 nM
- TGI (NCI/ADR-RES ovarian): 30000 nM
- GI50 (NCI-H522 lung): < 3 nM
- TGI (NCI-H522 lung): 17.3 nM
- GI50 (SK-MEL-28 melanoma): < 3 nM
- TGI (SK-MEL-28 melanoma): < 3 nM
- GI50 (U251 CNS): < 3 nM
- TGI (U251 CNS): 3860 nM
- GI50 (ACHN renal): 7.47 nM
- TGI (ACHN renal): 9220 nM
- GI50 (SK-MEL-5 melanoma): < 3 nM
- TGI (SK-MEL-5 melanoma): 20.4 nM
- GI50 (T-47D breast): < 3 nM
- TGI (T-47D breast): 1130 nM
- GI50 (HOP-92 NSCLC): 6.36 nM
- TGI (HOP-92 NSCLC): 1430 nM
- GI50 (SF-268 CNS): < 3 nM
- TGI (SF-268 CNS): 1460 nM
- GI50 (OVCAR-3 ovarian): 53.3 nM
- TGI (OVCAR-3 ovarian): 6880 nM
- GI50 (IGROV1 ovarian): < 3 nM
- TGI (IGROV1 ovarian): 8790 nM
- GI50 (LOX IMVI melanoma): < 3 nM
- TGI (LOX IMVI melanoma): 4.83 nM
- GI50 (COLO 205 colon): < 3 nM
- TGI (COLO 205 colon): 19.4 nM
- GI50 (MDA-MB-435): < 3 nM
- TGI (MDA-MB-435): 43.5 nM
- GI50 (BT-549 breast): < 3 nM
- TGI (BT-549 breast): 2180 nM
- GI50 (OVCAR-8 ovarian): 1020 nM
- TGI (OVCAR-8 ovarian): 30000 nM
- GI50 (A549 NSCLC): < 3 nM
- TGI (A549 NSCLC): 9950 nM
- GI50 (HCC-2998 colon): 216 nM
- TGI (HCC-2998 colon): 12700 nM
- GI50 (MCF7 breast): < 3 nM
- TGI (MCF7 breast): 532 nM
- GI50 (RXF 393 renal): < 3 nM
- TGI (RXF 393 renal): < 3 nM
- GI50 (HOP-62 NSCLC): < 3 nM
- TGI (HOP-62 NSCLC): 592 nM
- GI50 (CAKI-1 renal): < 3 nM
- TGI (CAKI-1 renal): 349 nM
- GI50 (UO-31 renal): < 3 nM
- TGI (UO-31 renal): 5.6 nM
- GI50 (MDA-MB-231 breast): 31.3 nM
- TGI (MDA-MB-231 breast): 4550 nM
- GI50 (TK-10 renal): 14.8 nM
- TGI (TK-10 renal): 6600 nM
- GI50 (MOLT-4 leukemia): < 3 nM
- TGI (MOLT-4 leukemia): < 3 nM
- GI50 (PC-3 prostate): < 3 nM
- TGI (PC-3 prostate): 311 nM
- GI50 (SN12C renal): 1110 nM
- TGI (SN12C renal): 28300 nM
- GI50 (DU-145 prostate): < 3 nM
- TGI (DU-145 prostate): 24300 nM
- GI50 (SF-539 CNS): < 3 nM
- TGI (SF-539 CNS): < 3 nM
- GI50 (NCI-H460 lung): < 3 nM
- TGI (NCI-H460 lung): 306 nM
- GI50 (HCT-116 colon): < 3 nM
- TGI (HCT-116 colon): 3150 nM
- GI50 (SF-295 CNS): < 3 nM
- TGI (SF-295 CNS): < 3 nM
- GI50 (786-0 renal): < 3 nM
- TGI (786-0 renal): 441 nM
- GI50 (UACC-257 melanoma): < 3 nM
- TGI (UACC-257 melanoma): 7.2 nM
- GI50 (KM12 colon): 3.99 nM
- TGI (KM12 colon): 4480 nM

Source: PubChem BioAssay (NCI)
